The values below are quoted from earlier work in patent US10894960B2, “Compositions and methods for nucleic acid transfer” (Children's Hospital Medical Center, priority 2016, dated 2021).

Structures are written as SMILES.

SUR1, sequence (Q09428 whole entry, species assumed): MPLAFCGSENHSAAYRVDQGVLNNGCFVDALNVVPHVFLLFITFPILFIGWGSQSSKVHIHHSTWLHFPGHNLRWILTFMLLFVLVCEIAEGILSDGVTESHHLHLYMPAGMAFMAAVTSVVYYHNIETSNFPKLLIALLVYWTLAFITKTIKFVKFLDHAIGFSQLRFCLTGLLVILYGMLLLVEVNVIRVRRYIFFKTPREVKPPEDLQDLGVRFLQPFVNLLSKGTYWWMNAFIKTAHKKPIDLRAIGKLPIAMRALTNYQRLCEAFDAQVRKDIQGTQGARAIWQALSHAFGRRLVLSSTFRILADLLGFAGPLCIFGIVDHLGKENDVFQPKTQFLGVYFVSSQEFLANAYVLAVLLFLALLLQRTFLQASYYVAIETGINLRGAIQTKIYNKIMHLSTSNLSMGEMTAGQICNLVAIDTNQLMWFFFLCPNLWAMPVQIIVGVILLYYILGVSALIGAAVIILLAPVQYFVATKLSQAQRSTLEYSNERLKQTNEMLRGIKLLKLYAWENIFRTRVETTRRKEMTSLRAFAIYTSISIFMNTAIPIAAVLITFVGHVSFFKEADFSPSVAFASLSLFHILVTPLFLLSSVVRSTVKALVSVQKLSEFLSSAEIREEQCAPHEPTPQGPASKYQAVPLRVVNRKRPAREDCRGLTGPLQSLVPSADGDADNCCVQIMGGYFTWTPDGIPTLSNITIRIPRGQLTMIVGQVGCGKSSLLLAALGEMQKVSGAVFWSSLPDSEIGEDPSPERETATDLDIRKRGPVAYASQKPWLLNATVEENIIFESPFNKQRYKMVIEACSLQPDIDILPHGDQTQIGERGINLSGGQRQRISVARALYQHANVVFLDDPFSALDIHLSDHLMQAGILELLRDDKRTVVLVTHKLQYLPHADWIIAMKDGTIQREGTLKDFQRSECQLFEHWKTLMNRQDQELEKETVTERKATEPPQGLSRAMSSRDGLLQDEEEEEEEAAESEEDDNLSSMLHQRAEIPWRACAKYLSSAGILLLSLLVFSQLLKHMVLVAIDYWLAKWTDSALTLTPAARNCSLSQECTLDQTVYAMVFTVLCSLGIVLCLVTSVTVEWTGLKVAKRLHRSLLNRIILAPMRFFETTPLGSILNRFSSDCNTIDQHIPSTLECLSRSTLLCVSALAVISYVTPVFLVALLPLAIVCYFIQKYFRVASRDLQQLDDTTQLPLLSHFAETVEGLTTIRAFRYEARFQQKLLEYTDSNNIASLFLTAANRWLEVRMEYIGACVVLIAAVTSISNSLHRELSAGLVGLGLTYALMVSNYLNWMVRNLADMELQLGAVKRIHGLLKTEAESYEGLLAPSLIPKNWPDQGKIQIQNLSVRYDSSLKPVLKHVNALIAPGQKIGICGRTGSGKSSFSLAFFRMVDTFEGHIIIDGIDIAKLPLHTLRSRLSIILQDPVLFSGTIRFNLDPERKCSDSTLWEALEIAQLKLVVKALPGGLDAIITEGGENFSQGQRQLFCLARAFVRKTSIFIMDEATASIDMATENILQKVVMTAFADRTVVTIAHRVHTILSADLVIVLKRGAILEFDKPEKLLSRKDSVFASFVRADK
SUR1, sequence (Q14654 whole entry partner, species assumed): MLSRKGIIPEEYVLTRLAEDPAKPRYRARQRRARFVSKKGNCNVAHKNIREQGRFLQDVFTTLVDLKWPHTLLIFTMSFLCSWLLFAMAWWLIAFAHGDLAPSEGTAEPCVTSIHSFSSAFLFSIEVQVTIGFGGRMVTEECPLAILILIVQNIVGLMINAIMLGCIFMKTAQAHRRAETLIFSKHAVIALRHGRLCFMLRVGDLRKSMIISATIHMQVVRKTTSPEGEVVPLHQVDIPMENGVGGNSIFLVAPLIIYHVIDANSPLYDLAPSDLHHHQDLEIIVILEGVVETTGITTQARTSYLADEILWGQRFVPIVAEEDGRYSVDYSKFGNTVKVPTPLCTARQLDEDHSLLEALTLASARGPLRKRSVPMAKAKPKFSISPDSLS
TOP2 beta, sequence (Q02880 whole entry): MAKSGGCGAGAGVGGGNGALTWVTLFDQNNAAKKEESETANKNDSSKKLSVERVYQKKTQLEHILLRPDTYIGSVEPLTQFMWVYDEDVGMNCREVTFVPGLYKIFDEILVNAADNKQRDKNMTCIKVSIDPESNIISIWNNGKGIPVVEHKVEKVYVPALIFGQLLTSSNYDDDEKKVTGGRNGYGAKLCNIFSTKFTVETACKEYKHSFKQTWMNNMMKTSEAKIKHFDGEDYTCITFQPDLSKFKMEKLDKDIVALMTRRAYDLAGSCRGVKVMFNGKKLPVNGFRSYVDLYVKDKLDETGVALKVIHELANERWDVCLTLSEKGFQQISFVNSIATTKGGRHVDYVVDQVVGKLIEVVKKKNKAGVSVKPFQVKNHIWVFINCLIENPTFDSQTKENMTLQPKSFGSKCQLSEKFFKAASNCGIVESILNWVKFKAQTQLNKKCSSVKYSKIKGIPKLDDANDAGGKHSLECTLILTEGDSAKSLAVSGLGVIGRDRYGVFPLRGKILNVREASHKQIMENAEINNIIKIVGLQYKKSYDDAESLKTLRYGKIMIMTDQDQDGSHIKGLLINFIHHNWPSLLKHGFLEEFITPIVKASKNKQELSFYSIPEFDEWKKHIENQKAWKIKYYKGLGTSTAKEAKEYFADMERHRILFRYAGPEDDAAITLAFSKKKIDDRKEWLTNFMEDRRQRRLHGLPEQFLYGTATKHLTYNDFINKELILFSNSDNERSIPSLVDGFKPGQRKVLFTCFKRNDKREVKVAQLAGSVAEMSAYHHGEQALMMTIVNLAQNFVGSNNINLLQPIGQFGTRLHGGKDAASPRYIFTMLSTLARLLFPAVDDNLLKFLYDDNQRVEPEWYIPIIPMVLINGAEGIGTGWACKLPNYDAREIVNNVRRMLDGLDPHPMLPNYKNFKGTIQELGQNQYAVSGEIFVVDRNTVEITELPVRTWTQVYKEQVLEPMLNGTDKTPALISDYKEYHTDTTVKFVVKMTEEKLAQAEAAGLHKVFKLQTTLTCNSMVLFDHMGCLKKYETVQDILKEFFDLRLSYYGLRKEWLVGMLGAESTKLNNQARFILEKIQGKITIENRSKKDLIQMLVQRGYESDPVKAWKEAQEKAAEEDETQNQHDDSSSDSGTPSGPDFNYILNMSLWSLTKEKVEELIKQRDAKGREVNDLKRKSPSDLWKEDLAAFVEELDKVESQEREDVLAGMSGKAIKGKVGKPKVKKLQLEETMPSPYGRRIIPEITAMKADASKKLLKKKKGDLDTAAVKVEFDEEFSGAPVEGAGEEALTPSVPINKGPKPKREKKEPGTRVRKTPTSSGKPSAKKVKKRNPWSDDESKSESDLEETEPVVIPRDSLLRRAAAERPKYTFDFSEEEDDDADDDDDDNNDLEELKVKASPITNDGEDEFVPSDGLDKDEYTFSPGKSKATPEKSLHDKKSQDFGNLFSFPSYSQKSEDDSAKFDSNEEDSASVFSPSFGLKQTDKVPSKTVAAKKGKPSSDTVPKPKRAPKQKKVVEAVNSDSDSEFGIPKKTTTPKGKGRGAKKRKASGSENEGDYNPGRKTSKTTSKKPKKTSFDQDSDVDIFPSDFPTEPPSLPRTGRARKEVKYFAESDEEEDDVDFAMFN
NR3A, sequence (Q8TCU5 24-1115, species assumed, other chains not shown): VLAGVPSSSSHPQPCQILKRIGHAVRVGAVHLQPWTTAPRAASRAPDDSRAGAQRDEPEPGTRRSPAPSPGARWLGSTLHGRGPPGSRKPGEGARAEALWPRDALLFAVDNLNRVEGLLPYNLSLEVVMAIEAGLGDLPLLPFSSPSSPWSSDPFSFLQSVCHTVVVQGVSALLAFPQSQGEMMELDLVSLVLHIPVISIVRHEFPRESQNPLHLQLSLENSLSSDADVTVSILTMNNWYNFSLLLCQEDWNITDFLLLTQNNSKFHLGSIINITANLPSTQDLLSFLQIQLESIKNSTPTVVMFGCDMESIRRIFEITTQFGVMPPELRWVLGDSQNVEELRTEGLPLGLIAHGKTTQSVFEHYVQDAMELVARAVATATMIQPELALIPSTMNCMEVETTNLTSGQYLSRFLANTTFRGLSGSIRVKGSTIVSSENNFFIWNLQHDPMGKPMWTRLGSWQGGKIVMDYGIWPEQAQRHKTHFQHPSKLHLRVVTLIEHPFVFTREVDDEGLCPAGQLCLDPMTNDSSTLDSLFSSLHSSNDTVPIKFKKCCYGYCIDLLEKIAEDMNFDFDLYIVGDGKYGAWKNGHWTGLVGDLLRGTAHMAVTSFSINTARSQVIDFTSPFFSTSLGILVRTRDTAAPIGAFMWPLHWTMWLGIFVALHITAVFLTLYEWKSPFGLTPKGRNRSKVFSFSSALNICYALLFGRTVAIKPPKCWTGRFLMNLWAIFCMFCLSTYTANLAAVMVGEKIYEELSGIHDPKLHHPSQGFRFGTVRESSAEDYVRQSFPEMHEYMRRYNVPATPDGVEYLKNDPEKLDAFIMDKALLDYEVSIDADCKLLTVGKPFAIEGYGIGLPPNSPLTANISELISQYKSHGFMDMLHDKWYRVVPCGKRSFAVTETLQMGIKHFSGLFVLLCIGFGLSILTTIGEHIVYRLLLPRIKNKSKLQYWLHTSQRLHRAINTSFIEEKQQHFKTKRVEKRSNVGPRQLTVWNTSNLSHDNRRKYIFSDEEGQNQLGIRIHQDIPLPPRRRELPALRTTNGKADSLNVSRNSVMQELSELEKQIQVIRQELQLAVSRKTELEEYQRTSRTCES

One series concerns the target SUR1 (Homo sapiens, UniProt Q09428). As to conditions: Target SUR1, gene symbol ABCC8.
`CCC1=C(C)CN(C(=O)NCCc2ccc(S(=O)(=O)NC(=O)N[C@H]3CC[C@H](C)CC3)cc2)C1=O` [Glimepiride]: the Effect result is “Inhibition”.

As to `C1CCC2(C1)C1CN(CC3CC3)CC2CN(CC2CC2)C1` [Tedisamil], the Effect result is given as “Inhibition”.

For the compound `CC1=NS(=O)(=O)c2cc(Cl)ccc2N1` [Diazoxide], the Effect result was “Activation”.

As to `CCOc1cc(CC(=O)N[C@@H](CC(C)C)c2ccccc2N2CCCCC2)ccc1C(=O)O` (racemic) [(R/S)-Repaglinide], the Effect entry is recorded as “Inhibition”.

Regarding `CC(=O)c1ccc(S(=O)(=O)NC(=O)NC2CCCCC2)cc1` [Acetohexamide], the Effect result is “Activation”.

Another series has as its target NR3A (Homo sapiens, UniProt Q8TCU5). As to conditions: Target NR3A, gene symbol GRIN3A.
Consider `CNC1(c2ccccc2Cl)CCCCC1=O` (stereo not shown) [Ketamine], for which the Effect entry is “Inhibition”.

Take `CC12CC3CC(C)(C1)CC(N)(C3)C2` [Memantine]: the Effect result is reported as “Inhibition”.

The next series addresses PARP-1 (Homo sapiens, UniProt P09874). As to conditions: Target PARP-1, gene symbol PARP1.
Regarding `O=[As]O[As]=O` (stereo not shown) [As(,2)O(,3)], the Effect entry is on record as “Inhibition”.

The next series has as its target TOP2 beta (Homo sapiens, UniProt Q02880). The following applies: Target TOP2 beta, gene symbol TOP2B.
In the case of `Cc1cnc(NCCCN(C)C)c2c1[nH]c1ccc3cc(O)ccc3c12` [Intoplicine], the Effect entry is reported as “Inhibition”.

As to `O=C(Nc1ccc2ncccc2c1)C(=O)c1cn(Cc2ccc(Cl)cc2)c2ccccc12` [Entasobulin], the Effect result is reported as “Inhibition”.

Turning to `COc1cc([C@@H]2c3cc4c(cc3[C@@H](O[C@@H]3O[C@@H]5CO[C@@H](C)O[C@H]5[C@H](O)[C@H]3O)[C@H]3COC(=O)[C@H]23)OCO4)cc(OC)c1O` [Etoposide], the Effect entry is listed as “Inhibition”.

For the compound `COc1ccc2c(c[n+](C)c3c4cc5c(cc4ccc23)OCO5)c1O` [NK109], the Effect entry is on record as “Inhibition”.

Consider `C[C@@H]1O[C@@H](O[C@H]2C[C@](O)(C(=O)CO)Cc3c(O)c4c(c(O)c32)C(=O)c2ccccc2C4=O)[C@H](I)[C@H](O)[C@H]1O` [Annamycin], for which the Effect result was “Inhibition”.

Consider `COc1cc([C@@H]2c3cc4c(cc3[C@@H](O[C@@H]3O[C@@H]5CO[C@@H](c6cccs6)O[C@H]5[C@H](O)[C@H]3O)[C@H]3COC(=O)[C@H]23)OCO4)cc(OC)c1O` [Teniposide], for which the Effect entry is reported as “Inhibition”.

For `COc1cc([C@@H]2c3cc4c(cc3[C@@H](CCN(C)CCN(C)C)[C@H]3COC(=O)[C@H]23)OCO4)cc(OC)c1O` [TOP53], the Effect result is listed as “Inhibition”.

Consider `CO[C@@H]1[C@@H](N)[C@@H](O[C@H]2[C@H](Oc3cccc4c(O)c5c(=O)oc6ccc(C)c7c(=O)oc(c34)c5c67)O[C@H](C)[C@H](O)[C@]2(C)O)O[C@H](C)[C@@H]1O` [Elsamitrucin], for which the Effect result is given as “Inhibition”.
